According to US8609329B2, “FRET-based assay for screening modulators of receptor cycling” (Albany Medical College, priority 2007, dated 2013):

Test system: LDL-R-LDL-C complexes
Test: Automated FRET imaging of LDL-C-BODIPY/LDL-C-DiI internalized into MDCK cells (organization of LDL-R/LDL-C complexes)
Format: cell-based
Experimental: MDCK cells were bound with LDL-C-BODIPY and LDL-C-DiI for 2 h at 4° C. or incubated for various times (5-8 min and 20-30 min) at 37° C. in the presence or absence of BafilomycinA 1 (BafA1), a specific vacuolar-type ATPase inhibitor. Images were collected using a LSM Zeiss 510META confocal microscope with 63×1.4NA oil lens, 512×512 pixel resolution, no filter, 2× zoom. Then images were processed using an integrated and automated ImageJ plugin, which includes background removal, PFRET algorithm, ROI selection and E % analysis (48). […]
First, images were background-subtracted and processed by PFRET software, which removed donor and acceptor SBT pixel-by-pixel on the basis of matched fluorescence levels between the double-label specimen and single-label reference specimens, using seven images; two single-label donor reference images (donor excitation/donor channel and acceptor channel); two single-label acceptor reference images (donor and acceptor excitation, both in the acceptor channel); three double-label images (donor excitation/donor and acceptor channel, acceptor excitation/acceptor emission. Elangovan et al., 2003; Wallrabe et al., 2003a,b). […] The pixel-by-pixel correction used to generate the processed FRET (PFRET) image was actually based on the average value of narrow fluorescence rangers, for more efficient running of the correction algorithm (Elangovan et al., 2003). […]

Structure (SMILES): CO/C1=C\C(C)=C\[C@@H](C)[C@@H](O)[C@@H](C)C/C(C)=C/C=C/[C@H](OC)[C@@H]([C@@H](C)[C@@H](O)[C@H](C)[C@@]2(O)C[C@@H](O)[C@H](C)[C@@H](C(C)C)O2)OC1=O [BafA1, Bafilomycin A1]
- organization of LDL-R-LDL-C complexes (clustered vs. random) (30 min internalization at 37° C., 100 nM BafA1): clustered organization
- dependency of E % on acceptor levels (LDL-C internalized at 37° C. for 30 min in the presence of 100 nM BafA1): clear independency from acceptor
